Experimental data taken from patent US11078194B2, “Salt form and crystal form serving as FGFR and VEGFR inhibitor compounds, and preparation method therefor” (HARBIN ZHENBAO PHARMACEUTICAL CO., LTD., priority 2017, dated 2021).
Each block holds one molecule with its values, some of them ahead of it.

Tests used:
FGFR1 = molecular target: T1, FGFR1 (Homo sapiens, UniProt P11362); test: Z'-LYTE Detection Kinase Assay, in vitro enzyme activity test; assay type: biochemical; conditions: 0.6 nM FGFR1, 10 μm ATP, 23° C., 60 minutes
T1 construct: purchased Invitrogen PV4105
Experimental: The enzyme activity was detected by Z′-LYTE™ Detection Kinase Assay, and the IC50 value of the compound was used as an indicator to evaluate the inhibitory effect of the compound against FGFR1.
FGFR1 (Invitrogen #PV4105)
Reaction buffer solution: 50 mM Hepes (pH 7.5), 10 mM MgCl2, 1 mM EGTA, 0.01% Brij-35, 1 mM DTT, 2 mM MnCl2;
0.6 nM FGFR1, 2 μm Tyr^4 peptide and 10 μm ATP in reaction buffer solution (50 mM Hepes, pH 7.5, 10 mM MgCl2, 0.01% BRU-35, 1 mM EGTA, 4 mM MnCl2, 2 mM DTT).
a. Diluting the compound with DMSO to 10 mM, 3-fold dilution, 11 gradients, two duplicate wells;
b. Transferring compound diluted with a ratio of 1:25 to the middle plate at Bravo Automatic Liquid Station. Then transferring 2.5 uL to the reaction plate to ensure the final DMSO concentration to be 1%;
c. Transferring 5 μL enzyme/substrate buffer to each well;
d. Adding ATP solution to each well sequentially with Multidrop liquid workstation;
e. Centrifuging at 1000 rpm for 1 minute;
f. Placing the reaction plate in a 23° C. incubator, and allowing to react for 60 minutes.
a. Preparing a mixture of Development regent B and Development Buffer with a ratio of 1:128;
b. Adding 5 uL to each well and centrifuging at 1000 rpm for 1 minute;
c. Placing the reaction plate into an incubator (23° C.) for 90 minutes after centrifugation, taking it out, and reading it in the Envision (Perkin Elmer) plate reader […]

[1] = test system: FGFR1/2 Highly Expressed Patient-derived Liver Tumor Transplantation Model; test: Tumor growth inhibition (TGI) analysis; assay type: in vivo, mice; conditions: 5 mg/kg, BID
Experimental: The evolutionary growth potential of tumors was evaluated by the relationship between tumor volume and time. The long axis (L) and short axis (W) of the subcutaneous tumor were measured twice a week by the caliper and the tumor volume (TV) was calculated by the formula ((L×W^2)/2). TGI was calculated from the difference between the median tumor volume in the solvent group mice and the median tumor volume in the drug group mice, expressed as a percentage counting for the median tumor volume in the solvent control group, calculated by the following formula: % TGI=((median tumor volume (control)−median tumor volume (dosing group))/median tumor volume (control group))×100
The original statistical analysis was done by repeating the analysis of variance, followed by post-hoc Scheffe's test method for multiple comparisons, with solvent alone (0.5% methylcellulose+0.2% Tween in water) as negative control.

[2] = Solid stability test of crystal form G, crystal form I and crystal form J (HPLC content, total impurities, XRPD, appearance); assay type: physicochemical; conditions: for thermal stability and stability under accelerated conditions: conclusion of influencing factors and accelerated tests
Experimental: About 10 mg of crystal form G, crystal form I, or crystal form J were weighed accurately, and placed on the bottom of a 40 mL glass sample bottle and spread into a thin layer. For an open sample, the bottle mouth thereof was sealed with aluminum foil poked with pinholes to ensure that the sample can fully contact with the ambient air. For a sealed sample, the bottle mouth thereof was sealed with a bottle cap, and wrapped with a sealing film. Two duplicate samples were weighed at each time point of each condition in parallel, and an appropriate amount of sample (not weighed) was taken additionally for XRPD detection. The prepared samples were placed under each condition and were sampled and analyzed when the time point was arrived. On 0th day, 5 control samples were weighed in parallel and stored in a refrigerator at −20° C. until analysis. The samples subjected to light irradiation were prepared by the same method, and placed on the bottom of a 40 mL glass sample bottle. The glass bottle was left open and placed in the upright position in a light irradiation box. In addition, two samples in an appropriate amount were taken as samples in dark, and the glass bottles containing the same were left open, put in the upright position, and wrapped with tin foil, and irradiated with a total luminance of 1.2×10^6Lux.hr and a near ultraviolet power of 200 w.hr/m^2. After irradiation, the samples was stored in the refrigerator at −20° C. for analysis.
The compounds were placed under the following conditions and sampled at different time points to detect the physical properties, and the content and total impurities were analyzed by HPLC.

[3] = Hygroscopicity test by dynamic vapor sorption (DVS); assay type: physicochemical; conditions: 25±1° C. and 80±2% RH; for hygroscopicity evaluation: scales in the 11th table
Experimental: Instrument model: SMS DVS Advantage dynamic vapor sorption analyzer Detection conditions: samples (10 mg to 15 mg) were placed in a DVS sample tray for detection. The detailed DVS parameters are as follows: Temperature: 25° C. Balance: dm/dt=0.01%/min (shortest: 10 min, longest: 180 min) Drying: 120 minutes at 0% RH RH (%) gradient for testing: 10% RH (%) range for gradient testing: 0%-90%-0% The hygroscopicity was evaluated using the following scales: [table] 10 to 15 mg of the crystal form I of the compound of formula (III) was taken and placed in a DVS sample tray for testing. 10 to 15 mg of the crystal form J of the compound of formula (IV) was taken and placed in a DVS sample tray for testing.

[4] = Accelerated test (40° C./relative humidity 75%, open), 1st month
[5] = Accelerated test (40° C./relative humidity 75%, open), 2nd month
[6] = Accelerated test (40° C./relative humidity 75%, open), 3rd month
[7] = Accelerated test (40° C./relative humidity 75%, open), 10th day
[8] = Accelerated test (60° C./relative humidity 75%, open), 1st month
[9] = Accelerated test (60° C./relative humidity 75%, open), 2nd month
[10] = Accelerated test (60° C./relative humidity 75%, open), 3rd month
[11] = Accelerated test (60° C./relative humidity 75%, open), 10th day
[12] = High humidity (Room temperature/relative humidity 92.5%, open), 5th day
[13] = High humidity (Room temperature/relative humidity 92.5%, open), 10th day
[14] = High temperature (60° C., open), 5th day
[15] = High temperature (60° C., open), 10th day
[16] = Light irradiation (1.2 × 10^6 Lux·hr, near ultraviolet 200 w·hr/m^2, open), irradiated sample
[17] = Light irradiation test, Dark sample
[18] = Accelerated test (40 C./relative humidity 75%, open), 1st month
[19] = Accelerated test (40 C./relative humidity 75%, open), 2nd month
[20] = Accelerated test (40 C./relative humidity 75%, open), 3rd month
[21] = Accelerated test (40 C./relative humidity 75%, open), 10th day
[22] = Accelerated test (60 C./relative humidity 75%, open), 1st month
[23] = Accelerated test (60 C./relative humidity 75%, open), 2nd month
[24] = Accelerated test (60 C./relative humidity 75%, open), 3rd month
[25] = Accelerated test (60 C./relative humidity 75%, open), 10th day
[26] = Light irradiation (total illuminance 1.2 × 10^6 Lux·hr/near ultraviolet 200 w·hr/m^2, open), light irradiation sample

T1 sequence (P11362 22-822): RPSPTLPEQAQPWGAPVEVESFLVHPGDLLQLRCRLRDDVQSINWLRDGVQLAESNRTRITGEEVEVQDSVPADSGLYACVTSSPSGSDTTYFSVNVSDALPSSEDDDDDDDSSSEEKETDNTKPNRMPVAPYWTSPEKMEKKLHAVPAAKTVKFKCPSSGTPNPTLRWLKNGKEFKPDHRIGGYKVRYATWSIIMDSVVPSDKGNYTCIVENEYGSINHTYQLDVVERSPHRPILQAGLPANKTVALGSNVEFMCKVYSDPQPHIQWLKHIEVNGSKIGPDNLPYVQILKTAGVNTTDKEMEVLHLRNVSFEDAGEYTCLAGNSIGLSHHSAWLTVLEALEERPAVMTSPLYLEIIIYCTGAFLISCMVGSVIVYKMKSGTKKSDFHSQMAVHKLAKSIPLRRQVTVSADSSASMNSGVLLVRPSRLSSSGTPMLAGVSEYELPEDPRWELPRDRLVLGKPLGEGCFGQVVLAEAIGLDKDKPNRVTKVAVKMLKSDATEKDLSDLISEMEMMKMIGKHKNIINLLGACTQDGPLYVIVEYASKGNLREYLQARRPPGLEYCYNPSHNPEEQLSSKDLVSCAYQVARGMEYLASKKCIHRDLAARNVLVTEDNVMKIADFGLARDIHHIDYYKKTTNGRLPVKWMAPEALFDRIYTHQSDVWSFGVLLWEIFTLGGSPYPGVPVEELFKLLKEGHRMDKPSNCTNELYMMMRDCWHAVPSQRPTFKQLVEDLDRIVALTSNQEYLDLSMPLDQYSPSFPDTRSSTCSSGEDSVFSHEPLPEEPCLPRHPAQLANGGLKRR

IC50 (FGFR1): ≤ 10 nM
Compound: C[C@@H](Oc1ccc2[nH]nc(/C=C(\F)c3ccc(CNC4CCOCC4)nc3)c2c1)c1c(Cl)cncc1Cl [Embodiment 1]
TGI % (last administration) [1]: 85%

Appearance ([2]; 0th day): Earth yellow
Content (%) ([2]; 0th day): 100.00%
Crystal form (XRPD) ([2]; 0th day): form I
Total impurities (%) ([2]; 0th day): 1.91%
Appearance [2, 4]: Earth yellow
Content (%) [2, 4]: 99.83%
Crystal form (XRPD) [2, 4]: form I
Total impurities (%) [2, 4]: 1.88%
Appearance [2, 5]: Earth yellow
Content (%) [2, 5]: 100.06%
Crystal form (XRPD) [2, 5]: form I
Total impurities (%) [2, 5]: 1.82%
Appearance [2, 6]: Earth yellow
Content (%) [2, 6]: 99.32%
Crystal form (XRPD) [2, 6]: form I
Total impurities (%) [2, 6]: 1.86%
Appearance [2, 7]: Earth yellow
Content (%) [2, 7]: 99.93%
Crystal form (XRPD) [2, 7]: form I
Total impurities (%) [2, 7]: 1.85%
Appearance [2, 8]: Earth yellow
Content (%) [2, 8]: 99.95%
Crystal form (XRPD) [2, 8]: form I
Total impurities (%) [2, 8]: 1.74%
Appearance [2, 9]: Earth yellow
Content (%) [2, 9]: 98.46%
Crystal form (XRPD) [2, 9]: form I
Total impurities (%) [2, 9]: 1.79%
Appearance [2, 10]: Earth yellow
Content (%) [2, 10]: 97.31%
Crystal form (XRPD) [2, 10]: form I
Total impurities (%) [2, 10]: 1.83%
Appearance [2, 11]: Earth yellow
Content (%) [2, 11]: 100.19%
Crystal form (XRPD) [2, 11]: form I
Total impurities (%) [2, 11]: 1.85%
Appearance [2, 12]: Earth yellow
Content (%) [2, 12]: 99.10%
Crystal form (XRPD) [2, 12]: form I
Total impurities (%) [2, 12]: 1.88%
Appearance [2, 13]: Earth yellow
Content (%) [2, 13]: 99.92%
Crystal form (XRPD) [2, 13]: form I
Total impurities (%) [2, 13]: 1.73%
Appearance [2, 14]: Earth yellow
Content (%) [2, 14]: 100.40%
Crystal form (XRPD) [2, 14]: form I
Total impurities (%) [2, 14]: 1.93%
Appearance [2, 15]: Earth yellow
Content (%) [2, 15]: 100.26%
Crystal form (XRPD) [2, 15]: form I
Total impurities (%) [2, 15]: 1.83%
Appearance [2, 16]: Earth yellow
Content (%) [2, 16]: 97.37%
Crystal form (XRPD) [2, 16]: form I
Total impurities (%) [2, 16]: 2.35%
Appearance [2, 17]: Earth yellow
Content (%) [2, 17]: 99.42%
Crystal form (XRPD) [2, 17]: form I
Total impurities (%) [2, 17]: 1.85%
thermal stability and stability under accelerated conditions [2]: excellent
stability under dark conditions [2]: good stability
impurities generated under light irradiation conditions [2]: slight impurities
hygroscopic weight gain ΔW [3]: 2.134%
hygroscopicity evaluation [3]: hygroscopic
Compound: C[C@@H](Oc1ccc2[nH]nc(/C=C(\F)c3ccc(CNC4CCOCC4)nc3)c2c1)c1c(Cl)cncc1Cl.O=C(O)CC(O)(CC(=O)O)C(=O)O [crystal form I]

Appearance ([2]; 0th day, control): Earth yellow
Crystal form (XRPD) ([2]; 0th day, control): form J
Content (%) ([2]; 0th day, control, HPLC): 100.00%
Total impurities (%) ([2]; 0th day, control, HPLC): 1.42%
Appearance [2, 18]: Earth yellow
Content (%) [2, 18]: 99.31%
Crystal form (XRPD) [2, 18]: form J
Total impurities (%) [2, 18]: 1.36%
Appearance [2, 19]: Earth yellow
Content (%) [2, 19]: 99.40%
Crystal form (XRPD) [2, 19]: form J
Total impurities (%) [2, 19]: 1.20%
Appearance [2, 20]: Earth yellow
Content (%) [2, 20]: 98.62%
Crystal form (XRPD) [2, 20]: form J
Total impurities (%) [2, 20]: 1.20%
Appearance [2, 21]: Earth yellow
Content (%) [2, 21]: 99.44%
Crystal form (XRPD) [2, 21]: form J
Total impurities (%) [2, 21]: 1.33%
Appearance [2, 22]: Earth yellow
Content (%) [2, 22]: 97.07%
Crystal form (XRPD) [2, 22]: form J
Total impurities (%) [2, 22]: 1.43%
Appearance [2, 23]: Earth yellow
Content (%) [2, 23]: 97.22%
Crystal form (XRPD) [2, 23]: form J
Total impurities (%) [2, 23]: 1.48%
Appearance [2, 24]: Earth yellow
Content (%) [2, 24]: 97.18%
Crystal form (XRPD) [2, 24]: form J
Total impurities (%) [2, 24]: 1.53%
Appearance [2, 25]: Earth yellow
Content (%) [2, 25]: 99.05%
Crystal form (XRPD) [2, 25]: form J
Total impurities (%) [2, 25]: 1.36%
Appearance [2, 12]: Earth yellow
Content (%) [2, 12]: 99.06%
Crystal form (XRPD) [2, 12]: form J
Total impurities (%) [2, 12]: 1.31%
Appearance [2, 13]: Earth yellow
Content (%) [2, 13]: 100.58%
Crystal form (XRPD) [2, 13]: form J
Total impurities (%) [2, 13]: 1.32%
Appearance [2, 14]: Earth yellow
Content (%) [2, 14]: 98.83%
Crystal form (XRPD) [2, 14]: form J
Total impurities (%) [2, 14]: 1.39%
Appearance [2, 15]: Earth yellow
Content (%) [2, 15]: 99.11%
Crystal form (XRPD) [2, 15]: form J
Total impurities (%) [2, 15]: 1.46%
Appearance [2, 26]: Earth yellow
Content (%) [2, 26]: 96.41%
Crystal form (XRPD) [2, 26]: form J
Total impurities (%) [2, 26]: 1.90%
Appearance [2, 17]: Earth yellow
Content (%) [2, 17]: 98.04%
Crystal form (XRPD) [2, 17]: form J
Total impurities (%) [2, 17]: 1.30%
thermal stability and stability under accelerated conditions [2]: excellent
stability under dark conditions [2]: good stability
impurities generated under light irradiation conditions [2]: slight impurities
hygroscopic weight gain ΔW [3]: 5.227%
hygroscopicity evaluation [3]: hygroscopic
Compound: C[C@@H](Oc1ccc2[nH]nc(/C=C(\F)c3ccc(CNC4CCOCC4)nc3)c2c1)c1c(Cl)cncc1Cl.O=C(O)C[C@H](O)C(=O)O [crystal form J]
